Source: the NIST ThermoML archive (doi:10.1021/je800609u)

How the values were obtained:
[1] = osmotic coefficient (dimensionless); mn = molality of the nth substance listed, in mol/kg; conditions: Liquid, vapor pressure osmometery method
[2] = refractive index (Na D-line) (dimensionless); mn = molality of the nth substance listed, in mol/kg; conditions: 101 kPa, Liquid

CCCCn1cc[n+](C)c1.[I-] [1-butyl-3-methylimidazolium iodide] + O
Conditions	osmotic coefficient, 298.15 K	osmotic coefficient, 308.15 K	osmotic coefficient, 318.15 K	osmotic coefficient, 328.15 K	refractive index, 298.15 K	refractive index, 308.15 K	refractive index, 318.15 K	refractive index, 328.15 K
[1], m1 = 0.0133	0.833	0.856	0.899	0.91	–	–	–	–
[1], m1 = 0.0293	0.821	0.843	0.888	0.889	–	–	–	–
[1], m1 = 0.0442	0.792	0.821	0.88	0.885	–	–	–	–
[1], m1 = 0.0505	0.784	0.814	0.869	0.878	–	–	–	–
[1], m1 = 0.0786	0.766	0.788	0.845	0.861	–	–	–	–
[1], m1 = 0.0995	0.761	0.78	0.819	0.833	–	–	–	–
[1], m1 = 0.1307	0.751	0.765	0.782	0.807	–	–	–	–
[1], m1 = 0.1782	0.711	0.734	0.758	0.778	–	–	–	–
[1], m1 = 0.216	0.697	0.714	0.74	0.768	–	–	–	–
[1], m1 = 0.3257	0.644	0.662	0.706	0.715	–	–	–	–
[1], m1 = 0.4065	0.613	0.645	0.682	0.69	–	–	–	–
[1], m1 = 0.5184	0.596	0.626	0.644	0.662	–	–	–	–
[1], m1 = 0.6452	0.564	0.581	0.61	0.619	–	–	–	–
[1], m1 = 0.7509	0.554	0.566	0.574	0.586	–	–	–	–
[1], m1 = 0.8786	0.528	0.553	0.558	0.569	–	–	–	–
[1], m1 = 1.154	0.47	0.501	0.521	0.528	–	–	–	–
[1], m1 = 1.837	0.405	0.413	0.429	0.45	–	–	–	–
[1], m1 = 2.589	0.362	0.38	0.387	0.408	–	–	–	–
[2], m1 = 0.0133	–	–	–	–	1.3331	1.3321	1.3305	1.3285
[2], m1 = 0.0293	–	–	–	–	1.3336	1.3325	1.331	1.3289
[2], m1 = 0.0442	–	–	–	–	1.3343	1.333	1.3316	1.3293
[2], m1 = 0.0505	–	–	–	–	1.3346	1.3334	1.3317	1.3298
[2], m1 = 0.0786	–	–	–	–	1.3356	1.3344	1.3328	1.331
[2], m1 = 0.0995	–	–	–	–	1.3365	1.3353	1.3336	1.3315
[2], m1 = 0.1307	–	–	–	–	1.3376	1.3363	1.3347	1.3329
[2], m1 = 0.1782	–	–	–	–	1.3395	1.3381	1.3364	1.3347
[2], m1 = 0.216	–	–	–	–	1.341	1.3397	1.338	1.3359
[2], m1 = 0.3257	–	–	–	–	1.3449	1.3435	1.3418	1.3404
[2], m1 = 0.4065	–	–	–	–	1.3478	1.3467	1.3447	1.3433
[2], m1 = 0.5184	–	–	–	–	1.3519	1.3503	1.3487	1.3464
[2], m1 = 0.6452	–	–	–	–	1.356	1.3548	1.3529	1.3507
[2], m1 = 0.7509	–	–	–	–	1.3595	1.358	1.3561	1.3541
[2], m1 = 0.8786	–	–	–	–	1.3635	1.362	1.36	1.3578
[2], m1 = 1.154	–	–	–	–	1.3714	1.3701	1.368	1.3657
[2], m1 = 1.837	–	–	–	–	1.3893	1.3876	1.3853	1.3831
[2], m1 = 2.589	–	–	–	–	1.4054	1.4035	1.4012	1.3986
